Several values for one entry are separate records, joined by “and”; a condition that tells them apart may be missing. Equal entries are not always repeated.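 Five concentrations, 48 hours, 96-well plates. The concentration for 50% growth inhibition is given as GI50. TGI denotes the concentration required for complete inhibition of growth.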
Key:
Assay in all cases: DTP human tumour cell line panel, 48 h
[1] = test system: MDA-MB-435
[2] = test system: MDA-MB-231 breast
[3] = test system: DU-145 prostate
[4] = test system: NCI/ADR-RES ovarian
[5] = test system: MCF7 breast

SMILES: COC(=O)/C(C#N)=C\N1CCN(C(=O)c2ccco2)C1=S
- GI50 [1]: 6.82 µM
- TGI [1]: 46.5 µM
- GI50 [2]: 4.17 µM
- TGI [2]: 15.8 µM
- GI50 [3]: 3.54 µM
- TGI [3]: 14 µM
- GI50 [4]: 24 µM
- TGI [4]: 58.4 µM

SMILES: CCN1CCN(CCOc2ccc(CNc3ccc4nc(CCC5CCCCC5)[nH]c4c3)cc2)CC1
- GI50 [5]: 1.8 µM
- TGI [5]: 5.84 µM
- GI50 [1]: 1.78 µM
- TGI [1]: 3.73 µM
- GI50 [2]: 1.6 µM
- TGI [2]: 3.11 µM
- GI50 [3]: 3.91 µM
- TGI [3]: 14 µM
- GI50 [4]: 3.11 µM
- TGI [4]: 11.2 µM

SMILES: O=S(=O)(NCCNc1nccc(-c2c(-c3cccc(O)c3)nc3sccn23)n1)c1ccc(F)cc1
- GI50 [5]: 2.39 µM
- TGI [5]: 14.9 µM
- GI50 [1]: 0.939 µM
- TGI [1]: 11.6 µM
- GI50 [2]: 4.88 µM
- TGI [2]: 44.8 µM
- GI50 [3]: 8.94 µM
- TGI [3]: 38.7 µM
- GI50 [4]: 53 µM
- TGI [4]: > 100 µM

SMILES: O=C(Nc1cccc(Cl)c1)Nc1cccc(Cl)c1
- GI50 [5]: 5.79 µM
- TGI [5]: > 100 µM
- GI50 [2]: 18.2 µM
- TGI [2]: > 100 µM

SMILES: COc1ccc(Nc2c3ccccc3nc3c2c2ccccc2n3C)cc1
- GI50 [5]: 28.3 µM
- TGI [5]: 86.3 µM
- GI50 [1]: 30.5 µM
- TGI [1]: > 100 µM
- GI50 [2]: 34.8 µM
- TGI [2]: > 100 µM
- GI50 [3]: 15.6 µM
- TGI [3]: > 100 µM
- GI50 [4]: 34 µM
- TGI [4]: > 100 µM

SMILES: COC(=O)[C@]12CC[C@@H](C)[C@H](C)[C@@H]1C1=CC[C@@H]3[C@@]4(C)C[C@@H](OC(=O)c5ccco5)[C@H](O)[C@@](C)(CO)[C@@H]4[C@H](O)C[C@@]3(C)[C@]1(C)CC2
- GI50 [5]: 1.8 µM
- TGI [5]: 3.71 µM
- GI50 [1]: 2.29 µM
- TGI [1]: 5.75 µM
- GI50 [2]: 2.23 µM
- TGI [2]: 4.8 µM
- GI50 [3]: 2.78 µM
- TGI [3]: 8.11 µM
- GI50 [4]: 2.59 µM
- TGI [4]: 7.12 µM

SMILES: COc1cc(/C=C/C(=O)C(=Cc2ccc(F)c(F)c2)C(=O)/C=C/c2ccc(O)c(OC)c2)ccc1O
- GI50 [5]: 2.57 µM
- TGI [5]: 11 µM
- GI50 [1]: 2.93 µM
- TGI [1]: 10.2 µM
- GI50 [2]: 3.48 µM
- TGI [2]: 16.7 µM
- GI50 [3]: 2.1 µM
- TGI [3]: 5.27 µM
- GI50 [4]: 4.06 µM
- TGI [4]: > 100 µM

SMILES: CN(C)CC(C(=O)c1ccccc1)c1ccccc1 (configuration not stated)
- GI50 [5]: 1.15 µM
- TGI [5]: 3.35 µM
- GI50 [1]: 1.9 µM
- TGI [1]: 7.38 µM
- GI50 [2]: 2.5 µM
- TGI [2]: 10.1 µM
- GI50 [3]: 1.34 µM
- TGI [3]: 3.15 µM
- GI50 [4]: 2.59 µM
- TGI [4]: 8.37 µM

SMILES: COc1cc2c(cc1OC)C(CCc1ccc(Cl)cc1)N(C)CC2 (configuration not stated)
- GI50 [5]: 21.2 µM
- TGI [5]: 47 µM
- GI50 [1]: 16.3 µM
- TGI [1]: 41.2 µM
- GI50 [2]: 16.3 µM
- TGI [2]: 39.1 µM
- GI50 [3]: 51.9 µM
- TGI [3]: > 100 µM
- GI50 [4]: 17.7 µM
- TGI [4]: 39.4 µM

SMILES: O=C1Cc2cc(CCn3ccnc3)c(Cl)cc2N1
- GI50 [5]: 4.12 µM
- TGI [5]: > 100 µM
- GI50 [1]: 3.12 µM
- TGI [1]: 15.2 µM
- GI50 [2]: 5.18 µM
- TGI [2]: > 100 µM
- GI50 [3]: 8.02 µM
- TGI [3]: > 100 µM
- GI50 [4]: 5.46 µM
- TGI [4]: > 100 µM

SMILES: CCOc1ccc(Cc2nccc3cc(OCC)c(OCC)cc23)cc1OCC
- GI50 [5]: 9.94 µM
- TGI [5]: 23.8 µM
- GI50 [1]: 5.78 µM
- TGI [1]: 23.1 µM
- GI50 [2]: 4.02 µM
- TGI [2]: 25.9 µM
- GI50 [3]: 12.9 µM
- TGI [3]: 31.8 µM
- GI50 [4]: 4.87 µM
- TGI [4]: 39.6 µM

SMILES: Oc1nc(NCCc2ccccc2)sc1/C=C1\C=Nc2ncccc21
- GI50 [5]: 2.79 µM and 2.95 µM
- TGI [5]: 11.3 µM and 11.5 µM
- GI50 [1]: 2.41 µM and 2.83 µM
- TGI [1]: 8.54 µM and 12.2 µM
- GI50 [2]: 3.05 µM and 3.74 µM
- TGI [2]: 9.27 µM and 21.6 µM
- GI50 [3]: 2.96 µM and 3.09 µM
- TGI [3]: 12.8 µM and 16.5 µM
- GI50 [4]: 12.2 µM and 8.3 µM
- TGI [4]: 50 µM and > 100 µM

SMILES: Cc1ccc(/C=C(\C#N)n2nnc3cc(Cl)c(Cl)cc32)cc1
- GI50 [5]: 1.88 µM
- TGI [5]: > 100 µM
- GI50 [1]: 0.909 µM
- TGI [1]: 6.8 µM
- GI50 [2]: 2.7 µM
- TGI [2]: 17.2 µM
- GI50 [3]: 3.27 µM
- TGI [3]: > 100 µM
- GI50 [4]: 2.22 µM
- TGI [4]: 7.61 µM

SMILES: CCCNc1nc(N(C)O)nc(N(C)O)n1
- GI50 [5]: 2.44 µM
- TGI [5]: > 100 µM
- GI50 [1]: 4.95 µM
- TGI [1]: > 100 µM
- GI50 [2]: 5.31 µM
- TGI [2]: > 100 µM
- GI50 [3]: 1.46 µM
- TGI [3]: > 30.1 µM
- GI50 [4]: 2.15 µM
- TGI [4]: > 100 µM

SMILES: O=C1NC(=NCc2cccs2)SC1Cc1ccc2ncccc2c1 (configuration not stated)
- GI50 [5]: 8.79 µM
- TGI [5]: > 25 µM
- GI50 [1]: 7.21 µM
- TGI [1]: > 25 µM
- GI50 [2]: > 25 µM
- TGI [2]: > 25 µM
- GI50 [3]: > 25 µM
- TGI [3]: > 25 µM
- GI50 [4]: > 25 µM
- TGI [4]: > 25 µM

SMILES: CCCc1cc(=O)oc2c(C(=O)CC(C)C)c(O)c(CC=C(C)C)c(O)c12
- GI50 [5]: 7.83 µM
- TGI [5]: > 50 µM
- GI50 [1]: 11.8 µM
- TGI [1]: 43.1 µM
- GI50 [2]: 9.81 µM
- TGI [2]: 24.7 µM
- GI50 [3]: 14.4 µM
- TGI [3]: > 50 µM
- GI50 [4]: 8.6 µM
- TGI [4]: 48.1 µM

From PubChem BioAssay (NCI)
